Experimental data: the supplement of paper PMC9013687

Assays:
[1] = system: Danio rerio embryo; experiment: EC10 Head trunk angle_Decrease; higher = less potent; conditions: exposure time: 2 dpf
Procedure: (§1)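 Zebrafish embryos (UFZ-OBI strain) were exposed from 2 hpf for 48 h (2 dpf) or 96 h (4 dpf) at 28 °C; spontaneous tail coiling was scored at 25 hpf. Morphological features from automated image analysis (FishInspector), heart rate and locomotor response were fitted with drc models. Quantal endpoints were dichotomised at 2.5 SD from controls and fitted with a log-logistic model; heart rate, pigmentation and STC were normalised to the replicate control mean. Betamethasone was tested as betamethasone dipropionate, diflorasone as diflorasone diacetate.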

[2] = system: Danio rerio embryo; experiment: EC10 Eye size_Decrease; higher = less potent; conditions: exposure time: 2 dpf
Procedure: as §1

[3] = system: Danio rerio embryo; experiment: EC20 Curvature_Increase; higher = less potent
Procedure: as §1

[4] = system: Danio rerio embryo; experiment: EC20 Head size_Decrease; higher = less potent; conditions: exposure time: 2 dpf
Procedure: as §1

[5] = system: Danio rerio embryo; experiment: EC50 Pericard size_Increase
Procedure: as §1

[6] = system: Danio rerio embryo; experiment: EC50 Head trunk angle_Decrease; conditions: exposure time: 2 dpf
Procedure: as §1

[7] = system: Danio rerio embryo; experiment: EC20 Body length_Decrease; higher = less potent; conditions: exposure time: 2 dpf
Procedure: as §1

[8] = system: Danio rerio embryo; experiment: EC10 Body length_Decrease; higher = less potent; conditions: exposure time: 2 dpf
Procedure: as §1

[9] = system: Danio rerio embryo; experiment: EC20 Head trunk angle_Decrease; higher = less potent; conditions: exposure time: 2 dpf
Procedure: as §1

[10] = system: Danio rerio embryo
Procedure: as §1

[11] = system: Danio rerio embryo; experiment: EC10 Any effect; higher = less potent
Procedure: as §1

[12] = system: Danio rerio embryo; experiment: EC20 Pigmentation decrease; higher = less potent; conditions: exposure time: 2 dpf
Procedure: as §1

[13] = system: Danio rerio embryo; experiment: EC10 Pericard size_Increase; higher = less potent
Procedure: as §1

[14] = system: Danio rerio embryo; experiment: EC50 Head size_Decrease; conditions: exposure time: 2 dpf
Procedure: as §1

[15] = system: Danio rerio embryo; experiment: EC10 Head size_Decrease; higher = less potent; conditions: exposure time: 2 dpf
Procedure: as §1

[16] = system: Danio rerio embryo; experiment: EC10 Lack of SB; higher = less potent; conditions: exposure time: 4 dpf
Procedure: as §1

[17] = system: Danio rerio embryo; experiment: EC50 Bladder size_Decrease; conditions: exposure time: 4 dpf
Procedure: as §1

[18] = system: Danio rerio embryo; experiment: EC50 Eye size_Decrease; conditions: exposure time: 2 dpf
Procedure: as §1

[19] = system: Danio rerio embryo; experiment: EC20 Lack of SB; higher = less potent; conditions: exposure time: 4 dpf
Procedure: as §1

[20] = system: Danio rerio embryo; experiment: EC20 Eye size_Decrease; higher = less potent; conditions: exposure time: 2 dpf
Procedure: as §1

[21] = system: Danio rerio embryo; experiment: EC20 Any effect; higher = less potent
Procedure: as §1

[22] = system: Danio rerio embryo; experiment: EC20 Bladder size_Decrease; higher = less potent; conditions: exposure time: 4 dpf
Procedure: as §1

[23] = system: Danio rerio embryo; experiment: EC10 Bladder size_Decrease; higher = less potent; conditions: exposure time: 4 dpf
Procedure: as §1

[24] = system: Danio rerio embryo; experiment: spontaneous tail coiling frequency (coils/min/embryo); higher = more spontaneous movement; conditions: 25 hpf
Procedure: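 Spontaneous tail coilings of zebrafish embryos exposed from 2 hpf were recorded at 24-25 hpf in 1-min videos and detected by a KNIME workflow from grey-value variance. Betamethasone was tested as the dipropionate, diflorasone as the diacetate.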

[25] = system: Danio rerio embryo; experiment: EC10 Curvature_Increase; higher = less potent
Procedure: as §1

[26] = system: Danio rerio embryo; experiment: EC20 Pericard size_Increase; higher = less potent
Procedure: as §1

[27] = system: Danio rerio embryo; experiment: EC10 Pigmentation decrease; higher = less potent; conditions: exposure time: 2 dpf
Procedure: as §1

[28] = system: Danio rerio embryo; experiment: EC50 Curvature_Increase
Procedure: as §1

[29] = system: Danio rerio embryo; conditions: exposure time: 4 dpf
Procedure: as §1

[30] = system: Danio rerio embryo; conditions: exposure time: 2 dpf
Procedure: as §1

[31] = system: Danio rerio embryo; experiment: EC50 Body length_Decrease; conditions: exposure time: 2 dpf
Procedure: as §1

COC(=O)Nc1nc2ccccc2[nH]1 [Carbendazim]
Conditions | EC10 Bladder size Decrease [µM] | EC10 Body length Decrease [µM] | EC10 Eye size Decrease [µM] | EC10 Head size Decrease [µM] | EC10 Head trunk angle Decrease [µM] | EC10 Lack of SB [µM] | EC10 Pigmentation decrease [µM] | EC20 Bladder size Decrease [µM] | EC20 Body length Decrease [µM] | EC20 Eye size Decrease [µM] | EC20 Head size Decrease [µM] | EC20 Head trunk angle Decrease [µM] | EC20 Lack of SB [µM] | EC20 Pigmentation decrease [µM] | EC50 Bladder size Decrease [µM] | EC50 Body length Decrease [µM] | EC50 Eye size Decrease [µM] | EC50 Head size Decrease [µM] | EC50 Head trunk angle Decrease [µM] | EC50 Lack of SB [µM] | EC50 Pigmentation decrease [µM]
[1] | – | – | – | – | 2.73 | – | – | – | – | – | – | – | – | – | – | – | – | – | – | – | –
[2] | – | – | 2.69 | – | – | – | – | – | – | – | – | – | – | – | – | – | – | – | – | – | –
[4] | – | – | – | – | – | – | – | – | – | – | 3.05 | – | – | – | – | – | – | – | – | – | –
[6] | – | – | – | – | – | – | – | – | – | – | – | – | – | – | – | – | – | – | 3.47 | – | –
[7] | – | – | – | – | – | – | – | – | 2.95 | – | – | – | – | – | – | – | – | – | – | – | –
[8] | – | 2.9 | – | – | – | – | – | – | – | – | – | – | – | – | – | – | – | – | – | – | –
[9] | – | – | – | – | – | – | – | – | – | – | – | 2.98 | – | – | – | – | – | – | – | – | –
[12] | – | – | – | – | – | – | – | – | – | – | – | – | – | 2.8 | – | – | – | – | – | – | –
[14] | – | – | – | – | – | – | – | – | – | – | – | – | – | – | – | – | – | 3.51 | – | – | –
[15] | – | – | – | 2.81 | – | – | – | – | – | – | – | – | – | – | – | – | – | – | – | – | –
[16] | – | – | – | – | – | 2.3 | – | – | – | – | – | – | – | – | – | – | – | – | – | – | –
[17] | – | – | – | – | – | – | – | – | – | – | – | – | – | – | 2.25 | – | – | – | – | – | –
[18] | – | – | – | – | – | – | – | – | – | – | – | – | – | – | – | – | 3.3 | – | – | – | –
[19] | – | – | – | – | – | – | – | – | – | – | – | – | 2.44 | – | – | – | – | – | – | – | –
[20] | – | – | – | – | – | – | – | – | – | 2.9 | – | – | – | – | – | – | – | – | – | – | –
[22] | – | – | – | – | – | – | – | 1.33 | – | – | – | – | – | – | – | – | – | – | – | – | –
[23] | 0.977 | – | – | – | – | – | – | – | – | – | – | – | – | – | – | – | – | – | – | – | –
[27] | – | – | – | – | – | – | 2.53 | – | – | – | – | – | – | – | – | – | – | – | – | – | –
[29] | – | – | – | – | – | – | – | – | – | – | – | – | – | – | – | – | – | – | – | 2.7 | –
[30] | – | – | – | – | – | – | – | – | – | – | – | – | – | – | – | – | – | – | – | – | 3.34
[31] | – | – | – | – | – | – | – | – | – | – | – | – | – | – | – | 3.04 | – | – | – | – | –

Conditions | EC10 Any effect [µM] | EC10 Curvature Increase [µM] | EC10 Pericard size Increase [µM] | EC20 Any effect [µM] | EC20 Curvature Increase [µM] | EC20 Pericard size Increase [µM] | EC50 Any effect [µM] | EC50 Curvature Increase [µM] | EC50 Pericard size Increase [µM] | spontaneous tail coiling frequency
[3], exposure time: 2 dpf | – | – | – | – | 2.9 | – | – | – | – | –
[3], exposure time: 4 dpf | – | – | – | – | 2.88 | – | – | – | – | –
[5], exposure time: 2 dpf | – | – | – | – | – | – | – | – | 3.43 | –
[5], exposure time: 4 dpf | – | – | – | – | – | – | – | – | 2.99 | –
[10], exposure time: 2 dpf | – | – | – | – | – | – | 3.05 | – | – | –
[10], exposure time: 4 dpf | – | – | – | – | – | – | 3.09 | – | – | –
[11], exposure time: 2 dpf | 2.93 | – | – | – | – | – | – | – | – | –
[11], exposure time: 4 dpf | 2.72 | – | – | – | – | – | – | – | – | –
[13], exposure time: 2 dpf | – | – | 2.94 | – | – | – | – | – | – | –
[13], exposure time: 4 dpf | – | – | 2.63 | – | – | – | – | – | – | –
[21], exposure time: 2 dpf | – | – | – | 2.98 | – | – | – | – | – | –
[21], exposure time: 4 dpf | – | – | – | 2.85 | – | – | – | – | – | –
[24], 0.23 µM | – | – | – | – | – | – | – | – | – | 2.14
[24], 0.344 µM | – | – | – | – | – | – | – | – | – | 1.91
[24], 0.517 µM | – | – | – | – | – | – | – | – | – | 2.25
[24], 0.775 µM | – | – | – | – | – | – | – | – | – | 2.51
[24], 1.16 µM | – | – | – | – | – | – | – | – | – | 1.06
[24], 1.162 µM | – | – | – | – | – | – | – | – | – | 2.68
[24], 1.74 µM | – | – | – | – | – | – | – | – | – | 1.81
[24], 1.743 µM | – | – | – | – | – | – | – | – | – | 1.56
[24], 2.615 µM | – | – | – | – | – | – | – | – | – | 2.98
[24], 2.62 µM | – | – | – | – | – | – | – | – | – | 2.11
[24], 3.138 µM | – | – | – | – | – | – | – | – | – | 4.11
[24], 3.661 µM | – | – | – | – | – | – | – | – | – | 3.75
[25], exposure time: 2 dpf | – | 2.71 | – | – | – | – | – | – | – | –
[25], exposure time: 4 dpf | – | 2.68 | – | – | – | – | – | – | – | –
[26], exposure time: 2 dpf | – | – | – | – | – | 3.11 | – | – | – | –
[26], exposure time: 4 dpf | – | – | – | – | – | 2.76 | – | – | – | –
[28], exposure time: 2 dpf | – | – | – | – | – | – | – | 3.27 | – | –
[28], exposure time: 4 dpf | – | – | – | – | – | – | – | 3.26 | – | –
